Our source for the GI50 and TGI values is PubChem BioAssay (NCI).

Assay in all cases: NCI-60 cell line screen, 48 h
Assay [1] concerns DU-145 prostate.
In assay [2] the test system is MDA-MB-435.
Assay [3] concerns HCC-2998 colon.
For assay [4], the system named is OVCAR-4 ovarian.
Assay [5] has as its system SK-MEL-5 melanoma.
The subject of assay [6] is MCF7 breast.
Assay [7] concerns K-562 leukemia.
The subject of assay [8] is A498 renal.

Molecules are shown by their SMILES. Several values for one entry are separate records, joined by “and”; a condition that tells them apart may be missing. Equal values may be shown once.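 These data come from cells grown in 96-well plates and exposed to compound for 48 hours at five concentrations. GI50 is the concentration that inhibits growth by half. Definition used: TGI = concentration required for complete inhibition of growth.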 *1 amine or outer side, *2 acyl side, *3 side chain or, on linkers, in order; H or OH if unused. Where a SMILES comes first, the peptide text is derived from it. Bridges are numbered along the chain shown (N, C = ends). Roman numbers before positions name the chains, in order. [ ]: non-standard residue; d: D form. Actinocin(9to1) = Cc1c2oc3c(C)ccc(C(=O)[*:1])c3nc-2c(C(=O)[*:2])c(N)c1=O; NMeV = CN[CH](C(=O)O)C(C)C; Sar = CNCC(=O)O

Consider `C[C@]12CC[C@@H]3c4ccc(O)cc4CC[C@H]3[C@@H]1CC[C@@H]2NS(=O)(=O)c1cccc(Cl)c1`, for which the GI50 in assay [1] is 4.17 µM; in assay [2], 2.63 µM; in assay [3] it was 3.45 µM; in assay [4], 2.2 µM; in assay [5] it was 1.72 µM; in assay [6] it was 2.92 µM. The GI50 was 3.14 µM in assay [7] and 1.56 µM in assay [8]. Also, the TGI in assay [1] amounted to 14.9 µM; in assay [2], 8.7 µM; in assay [3], 10.4 µM; in assay [4], 10.5 µM; in assay [5], 3.22 µM; in assay [6], 7.46 µM. Besides, the figures for the TGI in assay [7] and in assay [8] were 11.8 µM and 5.19 µM, respectively.
For `Cc1c(NC(=O)CCl)c(=O)oc2c(C)c3occc(=O)c3cc12`, the TGI in assay [1] is 74.5 µM; in assay [3], 32.8 µM; in assay [4] it was 25.6 µM; in assay [5], 23.6 µM; in assay [6], 66.2 µM; in assay [7], 52 µM. This molecule yielded a TGI in assay [8] of 31.7 µM.
`CC(=Nc1ccccc1)C1=C(O)C(Cc2cccc(F)c2)NC1=O` (stereo not drawn): the GI50 is 0.086 µM in assay [1]; 0.018 µM in assay [2]; 0.144 µM in assay [3]; 0.345 µM in assay [4]; 0.0343 µM in assay [5]; 0.0354 µM in assay [6]. Further, the values for the GI50 in assay [7] and in assay [8] were 0.0412 µM and 0.0356 µM, respectively. Moreover, the TGI is 10.2 µM in assay [1]; 0.056 µM in assay [2]; 3.1 µM in assay [3]; above 100 µM in assay [4]; 1.82 µM in assay [5]; above 100 µM in assay [6]. The figures for the TGI in assay [7] and in assay [8] were above 100 µM and 0.426 µM, respectively.
In the case of `CCCCCCCN(CCCCCCC)C(=N)c1ccnc2ccccc12`, the GI50 in assay [1] is 1.6 µM; in assay [2] it was 1.58 µM; in assay [3] it was 1.42 µM; in assay [4], 1.35 µM; in assay [5], 1.51 µM; in assay [6] it was 1.71 µM. Moreover, in assay [7], the GI50 is 1.27 µM. For the same molecule, the TGI in assay [1] came to 3.04 µM; in assay [2] it was 3.24 µM; in assay [3], 2.77 µM; in assay [4], 3.05 µM; in assay [5], 2.96 µM; in assay [6], 3.32 µM. Moreover, the TGI in assay [7] was 3.48 µM.
As for `COC(NC(N)=O)C(=O)O` (stereo not drawn), the TGI in assay [1], in assay [2], in assay [4], in assay [5], in assay [6] and in assay [7] was above 100 µM in each case. The molecule further had a TGI in assay [8] above 100 µM.
`CC(=O)O[C@@]12CO[C@@H]1C[C@H](O)[C@@]1(C)C(=O)[C@H](O)C3=C(C)[C@@H](OC(=O)[C@H](O)[C@@H](NC(=O)OC(C)(C)C)c4ccccc4)C[C@@](O)([C@@H](OC(=O)c4ccccc4)C12)C3(C)C` (stereo partly drawn): the GI50 in assay [1] was below 0.005 µM; in assay [3] it was below 0.005 µM; in assay [4] it was 12.6 µM; in assay [5], below 0.005 µM; in assay [6], below 0.005 µM; in assay [7], below 0.005 µM. The TGI in assay [3] is 0.00872 µM and 0.0429 µM; in assay [4] it was above 100 µM; in assay [5], 9.05 µM and 14.6 µM; in assay [6] it was 50 µM and 33.5 µM; in assay [7], 50 µM; in assay [8], 37 µM and 73.1 µM.
On to `O=C1CSC(c2ccc(-c3nc4ccccc4[nH]3)cc2)=N1`, for which the GI50 in assay [1] is 31.4 µM; in assay [2] it was 32.5 µM; in assay [3], 16.3 µM; in assay [5], 13 µM; in assay [6], 8.89 µM; in assay [7], 5.64 µM. The TGI in assay [1] is above 50 µM; in assay [2] it was above 50 µM; in assay [3], above 50 µM; in assay [5], above 50 µM; in assay [6] it was above 50 µM; in assay [7], 17.5 µM.
For the molecule `CCCCCCCCCCCC[N+](C)(C)Cc1ccccc1`, the GI50 was 3.61 µM in assay [1]; 1.58 µM in assay [2]; 1.82 µM in assay [4]; 1.33 µM in assay [5]; 2.01 µM in assay [6]; 1.56 µM in assay [7]. In addition, the GI50 in assay [8] was 8.06 µM. The TGI in assay [1] was 13.6 µM; in assay [2], 3.72 µM; in assay [4], 7.68 µM; in assay [5], 2.62 µM; in assay [6], 7.7 µM; in assay [7], 6.63 µM. In assay [8], this molecule returned a TGI of 24.8 µM.
Consider `CCOc1cc(C(=O)O)c2c(ccc3ccc(OC)c(OC)c32)c1OC`, for which the TGI in assay [1], in assay [2], in assay [3], in assay [4], in assay [5] and in assay [6] was above 100 µM in each case. Moreover, the TGI in assay [7] is above 100 µM.
`Cc1c2oc3c(C)ccc(C(=O)OC(C)C4NC(=O)C(C(C)C)N(C)C(=O)CN(C)C(=O)C5CCCN5C(=O)C(C(C)C)NC4=O)c3nc-2c(C(=O)OC(C)C2NC(=O)C(C(C)C)N(C)C(=O)CN(C)C(=O)C3CCCN3C(=O)C(C(C)C)NC2=O)c(N)c1=O` (stereo not drawn) (I: cyclo([Sar][NMeV]TVP) / II: cyclo([Sar][NMeV]TVP); linker I:3-II:3 via Actinocin(9to1); configuration not given here): the GI50 was below 0.0107 µM in assay [1]; below 0.01 µM in assay [2]; 0.014 µM in assay [4]; below 0.01 µM in assay [5]; below 0.01 µM in assay [6]; below 0.01 µM in assay [7]. Further, the GI50 in assay [8] was below 0.0107 µM. Besides, the TGI in assay [1] is above 30.7 µM; in assay [2], 0.0247 µM; in assay [4], 2.03 µM; in assay [5] it was 0.0169 µM; in assay [6], above 100 µM; in assay [7] it was above 100 µM. This molecule also yielded a TGI in assay [8] of 0.0294 µM.
As to `COc1ccc(OC)c(NC(=O)c2cccc(NC3=C(Cl)C(=O)N(Cc4ccccc4)C3=O)c2)c1`, the GI50 is 27.8 µM in assay [1]; above 64.7 µM in assay [2]; 70.4 µM in assay [3]; above 100 µM in assay [4]; 26.6 µM in assay [5]; above 48.2 µM in assay [6]. In addition, the GI50 in assay [7] is 35.4 µM. For the same molecule, the TGI in assay [1] was above 100 µM; in assay [2], above 100 µM; in assay [3] it was above 100 µM; in assay [4] it was above 100 µM; in assay [5], 87.7 µM; in assay [6] it was above 100 µM. In addition, the TGI in assay [7] is above 100 µM.
